Test results published in patent US20020039780A1, “Salicyclic acid inducible genes and promoters” (priority 1998, published 2002).

What was measured:
[1] = system: C14-1b; assay: Northern analysis of mRNA accumulation in cultured tobacco cells; format: cell-based
Description: (§1) FIG. 2. Time course of SA-induced gene expression. Northern analysis of representative differential display genes following treatment of cultured tobacco cells with SA for the indicated time (in hours, except lanes 2-4, which refer to 10, 20, and 30 min.). Twenty micrograms of total RNA was loaded per lane. Blots were hybridized with ddPCR fragments indicated at right or with the β-ATPase gene as a loading control probe. Autoradiogram exposure times were optimized for each gene. The signal for C18-1 was enhanced by using the full length cDNA as probe. Labels on left indicate response class.
(§2) FIG. 4. Specificity of induction among SA analogs and other signalling compounds. Northern analysis of representative differential display genes following treatment of tobacco cells with 100 μM or 1 mM (left and right side of triangles, respectively) of the following chemicals for 2-2.5 hr: salicylic acid (SA, lanes 4 and 5), acetylSA (ASA, lanes 6 and 7), benzoic acid (BA, lanes 8 and 9), 4-hydroxybenzoic (4HBA, lanes 10 and 11), thiamine (thia, lanes 12 and 13), methyljasmonate (MJ, lanes 14 and 15), abscisic acid (ABA, lanes 16 and 17), or 2,4-dichlorophenoxyacetic acid (2,4-D, lanes 18 and 19). Control treatments are H2O (H, lane 1), 1% ethanol (E, solvent concentration in MJ treatments, lane 2), or 1% DMSO (D, solvent concentration in 2,4D treatments, lane 3). Blots were hybridized with ddPCR fragments indicated at right or with the β-ATPase geneas a loading control probe. Autoradiogram exposure times were optimized for each gene. The signal for C18-1 was enhanced by using the full length cDNA as probe. Labels on left indicate response class.
(§3) Differential display technology (Liang, P. and Pardee, A. B., Science 257: 967-971, 1992) was used to identify genes activated in the presence of SA, CHX and both. Therefore the absence or presence of SA, induction at 3 timepoints of SA-treatment, 2 different concentrations of SA and the effect of addition of CHX were measured. Seven treatments in total were performed. Treatment of tobacco BY-2 suspension cells and leaves and differential display PCR reactions were performed as described (Horvath and Chua (1996), Plant Mol. Biol. 31, 1061-1072).
(§4) The specificity for induction by SA was tested by treating tobacco cells with a range of SA analogs and plant signalling compounds at 0.1 and 1 mM for approximately 2.5 h. […] Among the SA-analogs, acetyl-SA (ASA, aspirin), benzoic acid (BA) and 4-hydroxybenzoic acid (4HBA), responses generally reflected the ability of the analog to substitute for SA in other cellular responses (Yalpani, N. et al., Plant Cell 3: 809-818, 1991, Yang, Y. and Klessig, D. F., Proc. Natl. Acad. Sci. 93, 14972-14977, 1996). […] Several genes, including those for proteinase inhibitors and lipoxygenase (Hildmann, T. et al., Plant Cell 4: 1157-1170, 1992; Melan, M. A. et al., Plant Physiol. 101: 441-450, 1993; Xu, D. et al., Plant Mol. Biol. 22: 573-588, 1993) are known to be under dual regulation by MJ and ABA. A similar mode of regulation may be in effect with C14-1b. the auxin 2,4-D induced several genes including C18-1/EREBP1 and C6-2.

[2] = system: C6-2; assay: as above; format: cell-based
Description: as §1, §2, §3, §4

[3] = system: G3-2; assay: as above; format: cell-based
Description: (§5) FIG. 1. Four classes of SA-induced early genes. Northern analysis of genes identified by differential display. Gel-purified DNA fragments produced by ddPCR were either used directly for random-primed labeling and probing of Northern filters (e.g. C7-1, C6-1, and G9-2) or first subcloned and released by restriction digest. Each lane contains 1 μg of poly(A) mRNA from cultured tobacco cells treated with (1) H2O, 4 hr; (2) 200 μM SA, 4 hr; (3) 71 μM CHX, 5 hr; (4) 71 μM CHX, 5 hr plus 200 μM SA after 1 hr (4 hr total); (5) 20 μM SA, 2 hr; (7) 200 μM SA, 8 hr. One blot was sequentially hybridized with the G1-1 fragment and the β-ATPase gene as a loading control probe. response classes (I-IV) are indicated on the left of the autoradiograms.
as §1, §2, §3, §4

[4] = system: Class I genes; assay: Northern analysis of poly(A) mRNA from treated tobacco cells; format: cell-based; conditions: SA at 2, 4 or 8 h; 71 μM CHX 5 hrs; CHX + 200 μM SA
Description: as §5, §3
(§6) Fiftytwo were recovered for testing on poly(A)+Northern blots loaded with mRNA derived from cells from each of the treatments.

[5] = system: class II genes; assay: as above; format: cell-based; conditions: SA at 2, 4, 8 h; 71 μM CHX 5 hrs; CHX + 200 μM SA
Description: as §5, §3, §6

[6] = system: class IV genes (G3-2 and C14-1b); assay: as above; format: cell-based; conditions: SA at 2, 4, 8 h; 71 μM CHX 5 hrs
Description: as §5, §3, §6

[7] = system: C18-1/EREBP1; assay: Northern analysis of mRNA accumulation in cultured tobacco cells; format: cell-based; conditions: SA time course, full length cDNA probe
[8] = system: G8-1; assay: as above; format: cell-based; conditions: SA 0.1 μM to 2 mM
[9] = system: G1-1/EGT; conditions: SA; previously shown (Horvath and Chua, 1996); cited from earlier work
[10] = 0.1 and 1 mM, approximately 2.5 h

EC50 ([8]; Nicotiana tabacum, tobacco cells, 2-2.5 hr, read-out: concentration of SA required for half of the maximum level of G8-1 expression): ~1000 nM
Structure (SMILES): O=C(O)c1ccccc1O [SA, salicylic acid]
induction of C14-1b [1, 10]: did not reveal response
time at which C14-1b induction is apparent ([1]; SA time course): 2 to 2.5 h
time of peak C14-1b expression ([1]; SA time course): 5 h
C6-2 induction at 0.1 mM versus 1 mM [2, 10]: greater induction at 1mM
time at which C6-2 induction is apparent ([2]; SA time course): ≤ 10 min
time of peak C6-2 mRNA ([2]; SA time course): approximately 1.5 h
time of reduction of C6-2 mRNA to background levels ([2]; SA time course): ≤ 4 h
G3-2 mRNA levels at 20 μM SA ([3]; 20 μM SA): comparable to those at 200 μM
G3-2 induction at 0.1 mM versus 1 mM [3, 10]: equal or greater induction at 0.1 mM versus 1 mM
G3-2 mRNA levels between 2 and 12 h ([3]; SA time course): increased steadily
time before which G3-2 is not detectably activated ([3]; SA time course): ≥ 2 h
sensitivity of G3-2 to SA ([3]; data not shown): similarly sensitive as G8-1
mRNA induction of Class I genes [4]: little if any detectable mRNA accumulation
mRNA induction of class II genes [5]: rapid and transient
mRNA induction of class IV genes [6]: rapid and sustained induction
time at which increase in C18-1/EREBP1 mRNA is first apparent [7]: 10 min
response of G8-1 expression to SA concentration range [8]: activated over a large SA concentration range
time at which G1-1/EGT is induced [9]: 20 to 30 min
time of peak G1-1/EGT [9]: 3 h
